Activity data for three compounds are collected here from ChEMBL document CHEMBL3272124, “Synthesis of tetrazole ribonucleosides and their evaluation as antiviral agents. 2. 5-Amino-1-(beta-D-ribofuranosyl)-1H-tetrazole and 5-amino-2-(beta-D-ribofuranosyl)-2H-tetrazole” (J Med Chem, 1976).

Calls of active or inactive are those of the source. The rule behind the calls is not given here.

For this test, the system named is Influenza A virus. Nature of the test: Antiviral activity against Influenza A virus A2/Asian/J305 infected in Swiss albino mouse assessed as increase in host survival at 50 mg/kg, ip administered as 7 doses immediately before virus inoculation and at 1, 5, 24, 30, 48 and 72 hrs after virus infection measured on 21st day post-infection. It is filed as functional, organism-based. More on the design: dose 50 mg/kg.
`NC(=O)c1ncn([C@@H]2O[C@H](CO)[C@@H](O)[C@H]2O)n1`: the result was Active.
On to `Nc1nnn([C@@H]2O[C@H](CO)[C@@H](O)[C@H]2O)n1`, for which the result was inactive.
`Nc1nnnn1[C@@H]1O[C@H](CO)[C@@H](O)[C@H]1O`: the outcome was inactive.
